In patent US7897369B2, “Isoprenoid wax ester synthases, isoprenoid acyl CoA-synthetases, and uses thereof” (Regents of the University of Minnesota, priority 2007, dated 2011):

Assays:
Format in all cases: biochemical, Marinobacter hydrocarbonoclasticus DSM 8798
WS2 [1] = target: T1, WS2 (Marinobacter nauticus, UniProt A3RE51); assay: Kinetic WS assay, spectrophotometric (CoA release, DTNB); conditions: both substrates 1 mM; for Acyl-CoA specificity of WS2: hexadecanol as acyl acceptor; for Fatty/isoprenoid alcohol specificity of WS2: palmitoyl-CoA as acyl donor
Experimental: Assay reactions were preincubated at 37° C. for 5 min before the reactions were started by the addition of enzyme. Heat-denatured enzyme (99° C. for 15 min) was used as a negative control.
Acyl-CoA and fatty/isoprenoid alcohol specificity of WS2 was determined in the same manner as described for the kinetic WS assay with assumed saturating conditions containing both the fatty/isoprenoid alcohol and acyl-CoA substrates at a concentration of 1 mM. Acyl-CoA specificity was measured with hexadecanol as acyl acceptor, whereas palmitoyl-CoA was used as acyl donor to determine alcohol specificity.
A spectrophotometric assay was developed to determine the kinetic properties of WS1 and WS2. […] The specific activities of WS1, WS2, and Acinetobacter WS/DGAT were measured with palmitoyl-CoA and hexadecanol, palmitoyl-CoA and phytol, and phytanoyl-CoA and phytol. Phytanoyl-CoA for these assays was enzymatically synthesized from phytanic acid and CoA using the above-characterized isoprenoid/acyl-CoA synthetase Acs2.

WS2 [2] = target: T1, WS2; assay: Coupled enzyme assay, WS substrate profile (TLC); set-up: key to WE formation (spot intensity of wax ester products on TLC), WS2, C16 / WE formation (spot intensity of wax ester products on TLC), WS2, Phytol / WE formation (spot intensity of wax ester products on TLC), WS2, Farnesol / WE formation (spot intensity of wax ester products on TLC), WS2, C10 / WE formation (spot intensity of wax ester products on TLC), WS2, C12 / WE formation (spot intensity of wax ester products on TLC), WS2, C14: no activity (−); ranging from no activity (−) to most active (+++); ranging from no activity (−) to most active (+++); most active (+++); conditions: 12 h at 37° C., each substrate 250 μM; for WE formation (spot intensity of wax ester products on TLC), WS2, Farnesol: alcohol farnesol; for WE formation (spot intensity of wax ester products on TLC), WS2, Phytol: alcohol phytol; for WE formation (spot intensity of wax ester products on TLC), WS2, C10: fatty alcohol C10; for WE formation (spot intensity of wax ester products on TLC), WS2, C12: fatty alcohol C12; for WE formation (spot intensity of wax ester products on TLC), WS2, C14: fatty alcohol C14; for WE formation (spot intensity of wax ester products on TLC), WS2, C16: fatty alcohol C16
Experimental: (§1) Stock solutions of various substrates were prepared in 50 mM Tris-HCl buffer (pH 8) containing 1% gum arabic, 12.5 μg bovine serum albumin ml^−1, 0.1% taurocholate, and either 100 mM fatty acid, isoprenoid acid, fatty alcohol, or isoprenoid alcohol. Stock solutions were sonicated to disperse the substrates. Substrate profiles of the three WS were tested using coupled enzyme in vitro reactions in which the CoA synthetases Acs1 and Acs2 are added to synthesize the CoA-activated fatty acid phytanic acid substrates from corresponding acid precursors for the WS reactions. Assays were carried out in 500-μl reactions containing in 50 mM Tris-HCl buffer (pH 8.0), 12.5 μl of each acid, and alcohol substrate stock solution (final concentrations of each substrate of 250 μM), 10 mM MgCl2, 10 mM CoASH, 10 mM ATP, 5 mM TCEP, 0.1 U of inorganic pyrophosphatase, 0.25 μg of Acs1 and Acs2 CoA synthetase, and 0.5 μg of WS to be tested. Assays were incubated at 37° C. overnight before thin-layer chromatography (TLC) analysis of the reaction products.
(§2) In vitro WS assay samples were extracted with 500 μl of chloroformmethanol (1:1 [vol/vol]), and extracts were analyzed by TLC with Whatman normal phase silica gel 60 plates and developed using hexane-diethyl ether-acetic acid (90:10:1 [vol/vol/vol]). TLC plates were stained with either iodine vapor or anisaldehyde solution as described earlier (Jork et al., 1990. Thin-layer chromatography reagents and detection methods, vol. 1a. Physical and chemical detection methods: fundamentals, reagents. VHC, Weinheim, Germany). Palmitoyl palmitate and triolein were used as WE and TAG reference compounds, respectively.

WS1 = assay: Coupled enzyme assay, WS substrate profile (TLC); set-up: key to WE formation (spot intensity of wax ester products on TLC), WS1, C10 / WE formation (spot intensity of wax ester products on TLC), WS1, C12 / WE formation (spot intensity of wax ester products on TLC), WS1, C14 / WE formation (spot intensity of wax ester products on TLC), WS1, C16 / WE formation (spot intensity of wax ester products on TLC), WS1, Phytol / WE formation (spot intensity of wax ester products on TLC), WS1, Farnesol: no activity (−); ranging from no activity (−) to most active (+++); ranging from no activity (−) to most active (+++); most active (+++); conditions: 12 h at 37° C., each substrate 250 μM; for WE formation (spot intensity of wax ester products on TLC), WS1, Farnesol: alcohol farnesol; for WE formation (spot intensity of wax ester products on TLC), WS1, Phytol: alcohol phytol; for WE formation (spot intensity of wax ester products on TLC), WS1, C10: fatty alcohol C10; for WE formation (spot intensity of wax ester products on TLC), WS1, C12: fatty alcohol C12; for WE formation (spot intensity of wax ester products on TLC), WS1, C14: fatty alcohol C14; for WE formation (spot intensity of wax ester products on TLC), WS1, C16: fatty alcohol C16
Experimental: as §1, §2

T1 sequence (A3RE51 entry or part of it): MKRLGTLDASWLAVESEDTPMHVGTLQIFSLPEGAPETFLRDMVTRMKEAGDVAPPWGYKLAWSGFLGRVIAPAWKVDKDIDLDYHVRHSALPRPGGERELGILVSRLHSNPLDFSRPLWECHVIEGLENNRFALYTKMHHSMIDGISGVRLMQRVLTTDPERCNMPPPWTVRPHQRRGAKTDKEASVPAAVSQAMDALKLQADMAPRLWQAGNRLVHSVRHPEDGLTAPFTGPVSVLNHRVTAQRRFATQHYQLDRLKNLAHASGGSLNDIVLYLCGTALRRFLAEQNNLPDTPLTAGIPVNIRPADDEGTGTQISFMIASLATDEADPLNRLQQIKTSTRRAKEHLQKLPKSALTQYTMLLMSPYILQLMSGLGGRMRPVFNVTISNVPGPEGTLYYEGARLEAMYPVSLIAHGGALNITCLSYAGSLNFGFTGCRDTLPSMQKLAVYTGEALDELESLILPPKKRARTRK

Structure (SMILES)	Acyl-CoA specificity of WS2 (WS2 [1])	WE formation (spot intensity of wax ester products on TLC), WS2, Farnesol (WS2 [2])	WE formation (spot intensity of wax ester products on TLC), WS2, Phytol (WS2 [2])	WE formation (spot intensity of wax ester products on TLC), WS2, C10 (WS2 [2])	WE formation (spot intensity of wax ester products on TLC), WS2, C12 (WS2 [2])	WE formation (spot intensity of wax ester products on TLC), WS2, C14 (WS2 [2])	WE formation (spot intensity of wax ester products on TLC), WS2, C16 (WS2 [2])	WE formation (spot intensity of wax ester products on TLC), WS1, Farnesol (WS1)	WE formation (spot intensity of wax ester products on TLC), WS1, Phytol (WS1)	WE formation (spot intensity of wax ester products on TLC), WS1, C10 (WS1)	WE formation (spot intensity of wax ester products on TLC), WS1, C12 (WS1)	WE formation (spot intensity of wax ester products on TLC), WS1, C14 (WS1)	WE formation (spot intensity of wax ester products on TLC), WS1, C16 (WS1)	Fatty/isoprenoid alcohol specificity of WS2 (WS2 [1])
CCCCCCCCCCCCCC(=O)SCCNC(=O)CCNC(=O)[C@H](O)C(C)(C)COP(=O)(O)OP(=O)(O)OC[C@H]1O[C@@H](n2cnc3c(N)ncnc32)[C@H](O)[C@@H]1OP(=O)(O)O [myristoyl-CoA, myristoyl-CoA (C14:0)]	poorly converted													
CCCCCCCCCC(=O)O [C10]		+	+	+	+	−	+	+++	−	+	+	−	+	
CCCCCCCCCCCCCCCCCC(=O)SCCNC(=O)CCNC(=O)[C@H](O)C(C)(C)COP(=O)(O)OP(=O)(O)OC[C@H]1O[C@@H](n2cnc3c(N)ncnc32)[C@H](O)[C@@H]1OP(=O)(O)O [stearoyl-CoA, stearoyl-CoA (C18:0)]	readily accepted													
CCCCCCCCCCCCCC(=O)O [C14]		++	+	++	+	++	+	++	+	−	−	++	+	
CCCCCCCCCCCCCCCCCCCC(=O)SCCNC(=O)CCNC(=O)[C@H](O)C(C)(C)COP(=O)(O)OP(=O)(O)OC[C@H]1O[C@@H](n2cnc3c(N)ncnc32)[C@H](O)[C@@H]1OP(=O)(O)O [arachidoyl-CoA, arachidoyl-CoA (C20:0)]	readily accepted													
CCCCCCCCCCCC(=O)O [C12]		++	+	+	+	+	+	+++	−	−	+	+	+	
CCCCCCCCCCCCCCCCCC(=O)O [C18]		++	+	+	+	+	+	++	++	++	+	++	+	
CCCCCCCCCCCC(=O)SCCNC(=O)CCNC(=O)[C@H](O)C(C)(C)COP(=O)(O)OP(=O)(O)OC[C@H]1O[C@@H](n2cnc3c(N)ncnc32)[C@H](O)[C@@H]1OP(=O)(O)O [lauroyl-CoA, lauroyl-CoA (C12)]	not accepted at all													
CCCCCCCCCCCCO [dodecanol]														more readily taken up for WE synthesis than the equivalent-chain-length acyl-CoA carbon chain
CC/C=C\C/C=C\C/C=C\CCCCCCCC(=O)SCCNC(=O)CCNC(=O)[C@H](O)C(C)(C)COP(=O)(O)OP(=O)(O)OC[C@H]1O[C@@H](n2cnc3c(N)ncnc32)[C@H](O)[C@@H]1OP(=O)(O)O [linolenoyl-CoA, linolenoyl-CoA (C18:3)]	readily accepted													
CCCCCCCCCCCCCCCCCCCC(=O)O [C20]		+	+	−	−	+	+	++	++	+	+	+	+	
CCCCCC/C=C\CCCCCCCC(=O)O [C16Δcis9]		++	++	++	++	+++	+++	++	+++	+	++	++	++	
CC/C=C\C/C=C\C/C=C\CCCCCCCC(=O)O [C18Δcis9, 12, 15]		−	+	+	+	+	+	+	−	−	+	+	−	
CCCCCCCCCCO [Decanol]														more readily taken up for WE synthesis than the equivalent-chain-length acyl-CoA carbon chain
